Data taken from PubChem BioAssay (NCI).
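Exposure lasted 48 hours, with cells grown in 96-well plates and compounds tested at five concentrations. The concentration for full growth arrest is given as TGI.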

What was measured:
Test in all cases: NCI anticancer screen, dose series, 48 h
[1] = test system: OVCAR-8 ovarian
[2] = test system: LOX IMVI melanoma
[3] = test system: SW-620 colon
[4] = test system: UACC-62 melanoma
[5] = test system: MALME-3M melanoma
[6] = test system: HCC-2998 colon
[7] = test system: SF-295 CNS
[8] = test system: K-562 leukemia
[9] = test system: 786-0 renal
[10] = test system: PC-3 prostate

Compound | TGI [1] [µM] | TGI [2] [µM] | TGI [3] [µM] | TGI [4] [µM] | TGI [5] [µM] | TGI [6] [µM] | TGI [7] [µM] | TGI [8] [µM] | TGI [9] [µM] | TGI [10] [µM]
CNC(=O)NCCCCC(NC(=O)OCc1ccccc1)C(=O)OCc1ccccc1 (stereo unspecified) | 67.2 | 31.3 | > 100 | 47.9 | 47 | 36.9 | 50.3 | > 100 | 32.2 | 
[N-]=[N+]=Nc1nnc(CCCCc2nnc(N=[N+]=[N-])o2)o1 | > 100 | > 100 | > 100 | > 100 | > 100 | > 100 | > 100 | > 100 | > 100 | 
O=C(CC(=O)c1cccc2ccccc12)C(=O)Nc1nccs1 | > 100 | > 100 | > 100 | > 100 | > 100 | > 100 | > 100 | > 100 | > 100 | 
CC(C)(C)CC(C)(C)c1cc2c(O)c(c1)Cc1cc(C(C)(C)CC(C)(C)C)cc(c1O)Cc1cc(C(C)(C)CC(C)(C)C)cc(c1O)Cc1cc(C(C)(C)CC(C)(C)C)cc(c1O)Cc1cc(C(C)(C)CC(C)(C)C)cc(c1O)Cc1cc(C(C)(C)CC(C)(C)C)cc(c1O)Cc1cc(C(C)(C)CC(C)(C)C)cc(c1O)Cc1cc(C(C)(C)CC(C)(C)C)cc(c1O)C2 | > 100 |  | > 100 | > 100 | > 100 | > 100 | > 100 | > 100 | > 100 | 
CC(=O)Nc1ccc(S(=O)(=O)N/N=C(\C)CN2C(=O)c3ccccc3C2=O)cc1 | > 100 |  | > 100 | > 100 | > 100 | > 100 | > 100 | > 100 | > 100 | 
C=CCC(O)c1cc(OC)ccc1OC (stereo unspecified) | > 100 | > 100 | > 100 | > 100 | > 100 | > 100 | > 100 | > 100 | > 100 | 
CCOC(=O)/C(=C/c1ccccc1)N(CC)CC | > 100 | > 100 | > 100 | > 100 | > 100 | > 100 | > 100 | > 100 | > 100 | 
CCCCCC/C=C\CCCCCCCCCc1cccc(OC)c1O | > 100 | > 100 | > 100 | > 100 | > 100 |  | > 100 | > 100 | > 100 | > 100
CCOc1cc2cnc3c4cc(OC)c(OC)cc4ccc3c2cc1OC | > 100 | > 100 | > 100 | > 100 | > 100 | > 100 | > 100 | > 100 | > 100 | 
CC(C)=CC1(C)/C(=N\O)C(C)(CC(C)C)C(=O)N1O (stereo unspecified) | > 100 | > 100 | > 100 | > 100 | > 100 | > 100 | > 100 | > 100 | > 100 | 
NC(CCSCCF)C(=O)O (stereo unspecified) |  | > 100 | > 100 | > 100 |  |  |  | > 100 | > 100 | 
CC(=O)OCc1ncccc1C(OC(C)=O)OC(C)=O | > 100 | > 100 | > 100 | > 100 | > 100 |  | > 100 | > 100 | > 100 | 
